In publication PMC7224190, “Pharmacological inhibition of PRMT7 links arginine monomethylation to the cellular stress response” (Nature Communications, 2020):

Columns and labels:
Test in all cases: biochemical
Design in all cases: radiometric methyltransferase selectivity assay with tritiated SAM, per cent activity
Conditions in all cases: read-out: % of control remaining
[1] = target: DNMT1 (Homo sapiens, UniProt P26358)
Outline: (§1)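 Radiometric methyltransferase assays with ³H-SAM and substrate near apparent Km, compound tested at 1 and 10 μM. Methyl incorporation into biotinylated substrate read by scintillation proximity after guanidine quench; no-compound = 100%, no-enzyme = 0% activity.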

[2] = target: DOT1L (Homo sapiens, UniProt Q8TEK3)
Outline: as §1

[3] = target: PRC2-EZH1 (Homo sapiens, UniProt Q92800)
Outline: as §1

[4] = target: PRDM9 (Homo sapiens, UniProt Q9NQV7)
Outline: as §1

[5] = target: PRMT5-MEP50 (Homo sapiens, UniProt O14744)
Outline: as §1

[6] = target: PRMT8 (Homo sapiens, UniProt Q9NR22)
Outline: as §1

[7] = target: T1, SETD7 (Homo sapiens, UniProt Q8WTS6)
T1 sequence (Q8WTS6 1-366): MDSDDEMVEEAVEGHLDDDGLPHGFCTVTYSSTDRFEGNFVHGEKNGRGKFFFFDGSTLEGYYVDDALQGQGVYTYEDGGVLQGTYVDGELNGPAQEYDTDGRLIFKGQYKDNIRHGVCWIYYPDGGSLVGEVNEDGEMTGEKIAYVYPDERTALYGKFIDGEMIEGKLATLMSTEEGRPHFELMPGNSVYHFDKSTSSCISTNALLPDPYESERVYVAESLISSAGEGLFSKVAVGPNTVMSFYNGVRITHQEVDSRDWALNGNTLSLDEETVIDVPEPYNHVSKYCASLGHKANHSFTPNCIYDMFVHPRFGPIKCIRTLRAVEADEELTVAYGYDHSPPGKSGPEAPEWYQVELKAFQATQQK
Outline: as §1

[8] = target: T2, SMYD3 (Homo sapiens, UniProt Q9H7B4)
T2 sequence (Q9H7B4 1-428): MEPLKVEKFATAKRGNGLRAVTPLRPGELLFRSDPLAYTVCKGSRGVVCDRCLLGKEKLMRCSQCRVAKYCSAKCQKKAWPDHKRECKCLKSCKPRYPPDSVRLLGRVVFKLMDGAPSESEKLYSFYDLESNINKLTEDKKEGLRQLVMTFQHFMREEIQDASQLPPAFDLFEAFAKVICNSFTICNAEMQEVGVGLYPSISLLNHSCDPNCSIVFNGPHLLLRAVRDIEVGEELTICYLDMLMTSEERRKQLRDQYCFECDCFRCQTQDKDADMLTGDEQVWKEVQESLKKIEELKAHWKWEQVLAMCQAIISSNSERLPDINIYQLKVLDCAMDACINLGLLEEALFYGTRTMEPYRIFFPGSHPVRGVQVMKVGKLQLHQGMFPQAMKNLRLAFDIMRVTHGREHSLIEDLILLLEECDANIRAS
Outline: as §1

[9] = target: T3, SUV39H1 (Homo sapiens, UniProt O43463)
T3 sequence (O43463 1-412): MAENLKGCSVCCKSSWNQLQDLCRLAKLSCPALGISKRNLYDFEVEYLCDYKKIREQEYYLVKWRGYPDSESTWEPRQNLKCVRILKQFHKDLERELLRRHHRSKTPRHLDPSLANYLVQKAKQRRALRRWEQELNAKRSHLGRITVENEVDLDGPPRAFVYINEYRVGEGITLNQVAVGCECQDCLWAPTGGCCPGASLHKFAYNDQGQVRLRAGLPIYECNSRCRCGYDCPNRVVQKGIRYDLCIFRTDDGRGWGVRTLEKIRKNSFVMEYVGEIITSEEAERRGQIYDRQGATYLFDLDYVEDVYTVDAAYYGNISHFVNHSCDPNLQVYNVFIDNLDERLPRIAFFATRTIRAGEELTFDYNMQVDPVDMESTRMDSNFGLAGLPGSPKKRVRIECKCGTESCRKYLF
Outline: as §1

[10] = target: T4, SUV420H2 (Homo sapiens, UniProt Q86Y97)
T4 construct: gene KMT5C
Outline: as §1

Sequence of DOT1L (Q8TEK3 whole entry): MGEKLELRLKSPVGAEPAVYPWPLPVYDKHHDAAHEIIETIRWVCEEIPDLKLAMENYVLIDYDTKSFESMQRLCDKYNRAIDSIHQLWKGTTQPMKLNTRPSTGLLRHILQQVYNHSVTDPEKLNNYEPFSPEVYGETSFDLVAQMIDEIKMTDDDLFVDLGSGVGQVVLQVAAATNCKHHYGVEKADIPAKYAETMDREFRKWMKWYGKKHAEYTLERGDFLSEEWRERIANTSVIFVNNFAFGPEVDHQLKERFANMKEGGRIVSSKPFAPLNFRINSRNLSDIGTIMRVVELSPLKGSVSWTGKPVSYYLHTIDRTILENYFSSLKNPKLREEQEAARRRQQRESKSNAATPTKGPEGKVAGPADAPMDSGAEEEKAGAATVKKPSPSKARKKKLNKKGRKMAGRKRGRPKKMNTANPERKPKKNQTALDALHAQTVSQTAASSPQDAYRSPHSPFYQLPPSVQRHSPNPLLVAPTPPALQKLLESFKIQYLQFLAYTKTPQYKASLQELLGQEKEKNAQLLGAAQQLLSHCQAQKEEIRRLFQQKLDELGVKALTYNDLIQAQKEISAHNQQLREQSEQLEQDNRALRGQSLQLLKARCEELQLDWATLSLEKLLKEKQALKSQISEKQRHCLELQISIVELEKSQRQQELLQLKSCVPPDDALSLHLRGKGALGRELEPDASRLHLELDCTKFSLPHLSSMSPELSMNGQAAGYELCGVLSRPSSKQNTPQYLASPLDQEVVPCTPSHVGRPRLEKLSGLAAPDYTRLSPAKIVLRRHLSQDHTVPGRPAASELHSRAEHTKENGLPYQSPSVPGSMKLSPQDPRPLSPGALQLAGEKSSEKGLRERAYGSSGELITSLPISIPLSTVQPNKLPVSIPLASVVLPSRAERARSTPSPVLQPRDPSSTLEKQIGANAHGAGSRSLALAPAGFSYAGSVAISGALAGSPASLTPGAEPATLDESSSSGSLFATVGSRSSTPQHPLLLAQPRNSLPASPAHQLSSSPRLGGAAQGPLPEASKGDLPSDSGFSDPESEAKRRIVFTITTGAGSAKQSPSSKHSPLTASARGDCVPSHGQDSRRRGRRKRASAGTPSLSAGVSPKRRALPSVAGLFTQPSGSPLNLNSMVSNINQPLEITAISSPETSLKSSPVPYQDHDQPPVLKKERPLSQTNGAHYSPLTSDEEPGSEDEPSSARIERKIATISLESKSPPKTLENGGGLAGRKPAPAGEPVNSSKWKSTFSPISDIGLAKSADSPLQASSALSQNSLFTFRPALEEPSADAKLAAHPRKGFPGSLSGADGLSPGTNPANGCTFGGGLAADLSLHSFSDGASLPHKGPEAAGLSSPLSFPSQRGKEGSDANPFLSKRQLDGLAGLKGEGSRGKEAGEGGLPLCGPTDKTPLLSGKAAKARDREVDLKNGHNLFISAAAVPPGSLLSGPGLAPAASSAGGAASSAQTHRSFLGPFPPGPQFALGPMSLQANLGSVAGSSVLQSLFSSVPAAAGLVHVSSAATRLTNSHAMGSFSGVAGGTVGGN
Sequence of PRDM9 (Q9NQV7 whole entry): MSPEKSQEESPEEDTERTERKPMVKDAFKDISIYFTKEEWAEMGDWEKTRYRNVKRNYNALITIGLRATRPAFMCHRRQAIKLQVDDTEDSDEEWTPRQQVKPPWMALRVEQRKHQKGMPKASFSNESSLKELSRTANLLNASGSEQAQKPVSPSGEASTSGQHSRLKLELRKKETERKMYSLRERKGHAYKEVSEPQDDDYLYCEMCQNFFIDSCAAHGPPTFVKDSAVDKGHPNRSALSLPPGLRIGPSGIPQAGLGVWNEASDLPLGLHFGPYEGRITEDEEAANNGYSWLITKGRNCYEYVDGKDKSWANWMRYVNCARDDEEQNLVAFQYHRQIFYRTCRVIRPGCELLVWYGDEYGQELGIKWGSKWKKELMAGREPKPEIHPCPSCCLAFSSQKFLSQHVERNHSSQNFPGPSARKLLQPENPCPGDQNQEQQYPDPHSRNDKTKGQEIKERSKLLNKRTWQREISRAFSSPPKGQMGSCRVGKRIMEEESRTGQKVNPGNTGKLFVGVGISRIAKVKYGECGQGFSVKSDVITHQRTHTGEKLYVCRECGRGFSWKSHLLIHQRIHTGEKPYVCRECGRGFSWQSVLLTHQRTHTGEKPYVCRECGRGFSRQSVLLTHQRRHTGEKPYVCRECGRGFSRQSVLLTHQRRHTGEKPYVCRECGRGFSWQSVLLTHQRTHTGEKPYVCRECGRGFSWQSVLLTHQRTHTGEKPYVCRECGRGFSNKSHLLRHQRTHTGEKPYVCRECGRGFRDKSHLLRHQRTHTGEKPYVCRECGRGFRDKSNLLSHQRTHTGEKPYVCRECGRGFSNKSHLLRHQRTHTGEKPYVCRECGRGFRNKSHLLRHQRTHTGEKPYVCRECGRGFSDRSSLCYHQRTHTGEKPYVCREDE
Sequence of PRMT8 (Q9NR22 whole entry): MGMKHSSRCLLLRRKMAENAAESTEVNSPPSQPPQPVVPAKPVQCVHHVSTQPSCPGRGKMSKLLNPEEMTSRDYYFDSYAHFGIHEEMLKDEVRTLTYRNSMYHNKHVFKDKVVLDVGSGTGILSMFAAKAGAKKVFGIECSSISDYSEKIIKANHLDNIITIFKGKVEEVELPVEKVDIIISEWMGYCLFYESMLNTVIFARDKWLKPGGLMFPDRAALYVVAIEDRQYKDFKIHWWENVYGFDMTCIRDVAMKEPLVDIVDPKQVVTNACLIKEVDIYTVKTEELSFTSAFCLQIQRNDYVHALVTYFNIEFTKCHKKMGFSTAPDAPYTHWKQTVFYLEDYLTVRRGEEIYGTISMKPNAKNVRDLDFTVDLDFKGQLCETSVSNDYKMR
T4 sequence (Q86Y97 whole entry): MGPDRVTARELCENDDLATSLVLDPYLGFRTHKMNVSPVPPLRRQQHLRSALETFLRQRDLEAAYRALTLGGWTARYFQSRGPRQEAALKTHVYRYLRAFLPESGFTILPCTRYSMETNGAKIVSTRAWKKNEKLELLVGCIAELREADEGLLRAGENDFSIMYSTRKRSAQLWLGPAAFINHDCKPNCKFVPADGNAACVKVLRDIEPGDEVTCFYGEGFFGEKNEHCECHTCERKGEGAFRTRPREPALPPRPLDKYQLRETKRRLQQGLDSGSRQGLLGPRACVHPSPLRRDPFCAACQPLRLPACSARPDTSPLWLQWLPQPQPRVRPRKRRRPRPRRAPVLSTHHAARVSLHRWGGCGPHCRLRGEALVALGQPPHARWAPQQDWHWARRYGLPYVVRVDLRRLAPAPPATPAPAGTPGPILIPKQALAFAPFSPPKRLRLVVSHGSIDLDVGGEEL
Sequence of PRMT5-MEP50 (O14744 whole entry): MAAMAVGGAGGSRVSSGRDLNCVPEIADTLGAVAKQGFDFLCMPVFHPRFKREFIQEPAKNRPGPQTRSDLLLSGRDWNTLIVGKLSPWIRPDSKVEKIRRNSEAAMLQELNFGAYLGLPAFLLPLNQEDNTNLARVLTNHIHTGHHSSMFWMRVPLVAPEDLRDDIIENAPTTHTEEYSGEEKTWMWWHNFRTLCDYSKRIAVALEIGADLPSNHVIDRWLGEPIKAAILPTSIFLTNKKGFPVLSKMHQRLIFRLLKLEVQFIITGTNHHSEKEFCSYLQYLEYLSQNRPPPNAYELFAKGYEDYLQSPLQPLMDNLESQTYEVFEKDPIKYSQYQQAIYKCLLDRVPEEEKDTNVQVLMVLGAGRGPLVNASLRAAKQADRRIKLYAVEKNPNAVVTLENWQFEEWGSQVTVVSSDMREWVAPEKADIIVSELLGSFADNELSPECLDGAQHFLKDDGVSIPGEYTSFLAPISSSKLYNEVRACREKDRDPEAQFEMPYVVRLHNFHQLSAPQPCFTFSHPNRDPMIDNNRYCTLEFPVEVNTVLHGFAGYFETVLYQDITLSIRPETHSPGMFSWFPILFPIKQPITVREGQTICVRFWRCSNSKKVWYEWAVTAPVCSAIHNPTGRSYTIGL
Sequence of PRMT5-MEP50 (Q9BQA1 whole entry partner): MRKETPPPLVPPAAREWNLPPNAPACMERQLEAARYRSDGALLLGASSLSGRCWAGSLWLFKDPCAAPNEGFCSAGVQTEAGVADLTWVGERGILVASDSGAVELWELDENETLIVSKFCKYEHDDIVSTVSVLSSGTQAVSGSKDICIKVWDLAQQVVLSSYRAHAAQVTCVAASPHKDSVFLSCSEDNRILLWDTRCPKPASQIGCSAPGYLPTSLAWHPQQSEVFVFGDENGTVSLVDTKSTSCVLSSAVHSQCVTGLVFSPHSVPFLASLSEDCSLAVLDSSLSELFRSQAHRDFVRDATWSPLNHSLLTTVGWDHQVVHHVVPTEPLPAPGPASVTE

| SMILES | remaining activity at 1 µM [1] [%] | remaining activity at 10 µM [1] [%] | remaining activity at 1 µM [2] [%] | remaining activity at 10 µM [2] [%] | remaining activity at 1 µM [3] [%] | remaining activity at 10 µM [3] [%] | remaining activity at 1 µM [4] [%] | remaining activity at 10 µM [4] [%] | remaining activity at 1 µM [5] [%] | remaining activity at 10 µM [5] [%] | remaining activity at 1 µM [6] [%] | remaining activity at 10 µM [6] [%] | remaining activity at 1 µM [7] [%] | remaining activity at 10 µM [7] [%] | remaining activity at 1 µM [8] [%] | remaining activity at 10 µM [8] [%] | remaining activity at 1 µM [9] [%] | remaining activity at 10 µM [9] [%] | remaining activity at 1 µM [10] [%] | remaining activity at 10 µM [10] [%] |
| --- | --- | --- | --- | --- | --- | --- | --- | --- | --- | --- | --- | --- | --- | --- | --- | --- | --- | --- | --- | --- |
| CC1(C)O[C@@H]2[C@H](O1)[C@@H](CSCCCCNCc1cccc(-c3ccc(Cl)cc3)c1)O[C@H]2n1cnc2c(N)ncnc21 [SGC8158N] | 94 | 99 | 97 | 95 | 92 | 93 | 101 | 98 | 101 | 91 | 97 | 97 | 96 | 89 | 100 | 102 | 98 | 78 | 102 | 101 |
| Nc1ncnc2c1ncn2[C@@H]1O[C@H](CSCCCCNCc2cccc(-c3ccc(Cl)cc3)c2)[C@@H](O)[C@H]1O [SGC8158] | 98 | 91 | 58 | 13 | 106 | 100 | 106 | 96 | 15 | 2 | 92 | 45 | 100 | 100 | 102 | 104 | 94 | 90 | 98 | 87 |
